Results taken from patent US20220380347A1, “INHIBITORS OF CYSTEINE PROTEASES AND METHODS OF USE THEREOF” (Pardes Biosciences, Inc., priority 2020, published 2022).
Like-named read-outs stand apart in the source and are kept apart here.

Columns and labels:
[1] = target: 229E Mpro (Human coronavirus 229E, UniProt P0C6X1); assay: 229E Mpro enzymatic assay (standard methods, SARS-CoV2 Mpro assay given as exemplary); format: biochemical, human coronavirus (HCov) 229E
Method: Compounds were assayed using standard methods to assess compound activity and IC50. As an exemplary for assessment of the SARS-COV2 Mpro, the C-His6-tagged Mpro (NC_045512) was cloned, expressed in E. coli and purified. The assay buffer contained 20 mM of Tris-HCl (pH 7.3), 100 mM of NaCl, 1 mM of EDTA, 5 mM of TCEP and 0.1% BSA. The final concentrations of the Mpro protein and substrate were 25 nM and 25 μM, respectively, in the Mpro enzymatic assay. The Km of the Mpro substrate for the protease was 13.5 μM.
The compounds were added to an assay plate. […] For no inhibition control (ZPE, zero percent effect), no compound was added.
IC50 values of compounds were calculated with the GraphPad Prism software using the nonlinear regression model of log(inhibitor) vs. response—Variable slope (four parameters). The inhibition activity was calculated using the formula below, IC50 values is calculated using the Inhibition % data.
Inhibition %=[(Sample-Average ZPE)/(Average HPE-Average ZPE)]*100%^#

[2] = target: COVID-19 (nCoV-2019, SARS-CoV2) Mpro (Severe acute respiratory syndrome coronavirus 2, UniProt P0DTD1); assay: COVID-19 (nCoV-2019, SARS-CoV2) Mpro enzymatic assay; format: biochemical; settings: 25 μM substrate
[3] = system: HCov OC43; assay: HCoV OC43 cytopathic effect (CPE) assay, CellTiter Glo; format: cell-based, human coronavirus (HCov) OC43
Method: Example 238: Evaluation of antiviral activity of compounds against human coronavirus (HCov) 229E and OC43 in the cytopathic effect (CPE) assays
Compounds were assayed using standard methods against multiple coronaviral strains, including HCoV 229E and OC43 strains. The antiviral activity of compounds was calculated based on the protection of the virus-induced CPE at each concentration normalized by the virus control.
Reference compound used was remdesivir; detection reagent: CellTiter Glo.) The CPE were measured by CellTiter Glo following the manufacturer's manual. The antiviral activity of compounds was calculated based on the protection of the virus-induced CPE at each concentration normalized by the virus control.
Cell viability was measured with CellTiter Glo.

[4] = 25 nM Mpro, read-out: COVID-19 Mpro IC50
[5] = Betacoronavirus 1, OC43, read-out: OC43 IC50 (uM) MEDIAN, median
[6] = read-out: OC43 IC50 (uM) MEDIAN, median

Chain of 229E Mpro (P0C6X1 2966-3267): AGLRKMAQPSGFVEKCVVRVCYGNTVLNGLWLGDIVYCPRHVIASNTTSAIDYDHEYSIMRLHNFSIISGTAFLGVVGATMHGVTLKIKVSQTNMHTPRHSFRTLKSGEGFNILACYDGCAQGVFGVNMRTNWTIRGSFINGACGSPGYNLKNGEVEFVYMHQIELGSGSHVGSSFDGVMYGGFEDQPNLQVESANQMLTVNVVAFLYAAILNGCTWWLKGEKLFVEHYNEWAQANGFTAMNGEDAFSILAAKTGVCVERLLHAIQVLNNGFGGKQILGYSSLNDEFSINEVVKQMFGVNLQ

| SMILES | EC50 ([1]; 229E Mpro EC50) [nM] | IC50 [2, 4] [nM] | IC50 [3, 5] [µM] | also measured |
| --- | --- | --- | --- | --- |
| C[C@@H]1OCCN(C#N)[C@H]1C(=O)N(c1ccc(S(F)(F)(F)(F)F)cc1)C(C(=O)NC1CCOCC1)c1cncc(F)c1 (stereo partly drawn) [Compound 1419] | < 2000 | < 2000 | 2 to 10 |  |
| CC(C)(C)c1ccc(N(C(=O)[C@H]2[C@H](F)CCN2C#N)C(C(=O)NC2CCCCC2)c2cccnc2)cc1 (single isomer, unassigned) [Compound 910 Isomer 1] | < 2000 | < 2000 | < 2 |  |
| N#CN1CCOC[C@@H]1C(=O)N(c1ccc(C2CC2)cc1F)C(C(=O)NC1CCC(F)(F)CC1)c1cnccc1C(F)(F)F (single isomer, unassigned) [Compound 1313 Isomer 1] | < 2000 | < 2000 | < 2 |  |
| N#CN1CC[C@H]2C[C@]21C(=O)N(c1ccc(S(F)(F)(F)(F)F)cc1)C(C(=O)NC1CCC(F)(F)CC1)c1cncc(F)c1 (stereo partly drawn) [Compound 1261, (1R,5S)-2-cyano-N-[2-[(4,4-difluorocyclohexyl)amino]-1-(5-fluoro-3-pyridyl)-2-oxo-ethyl]-N-[4-(pentafluoro-λ^6-sulfanyl)phenyl]-2-azabicyclo[3.1.0]hexane-1-carboxamide] | 2000 to 10000 | > 30000 | > 30 |  |
| N#CN1C[C@H](O)C[C@@H]1C(=O)N(c1ccc(C2(C(F)(F)F)CC2)cc1)C(C(=O)NC1CCC(F)(F)CC1)c1cncc(F)c1 (single isomer, unassigned) [Compound 815a Isomer 1] | < 2000 | < 2000 | < 2 |  |
| CC1(C)CCN(C#N)[C@H]1C(=O)N(c1ccc(S(F)(F)(F)(F)F)cc1)C(C(=O)NC1CCC(F)(F)CC1)c1cncc(F)c1 (single isomer, unassigned) [1094 Isomer 1] | < 2000 | < 2000 |  | IC50 [3, 6]: < 2 µM |
| N#CN1C[C@H](O)C[C@@H]1C(=O)N(c1ccc(C2CC2)cc1F)C(C(=O)NC1CCCCC1)c1cccnc1 (single isomer, unassigned) [Compound 763 Isomer 1] | < 2000 | < 2000 | < 2 |  |
| CC(C)(C)c1ccc(N(C(=O)[C@H]2CCCN2C#N)C(C(=O)N2CC(=O)C2)c2cccnc2)cc1 (stereo partly drawn) [Compound 946b, (2R)—N-(4-(tert-butyl)phenyl)-1-cyano-N-(2-oxo-2-(3-oxoazetidin-1-yl)-1-(pyridin-3-yl)ethyl)pyrrolidine-2-carboxamide] | 2000 to 10000 | 10000 to 30000 | 10 to 30 |  |
| CO[C@@H]1C[C@H](C(=O)N(c2ccc(S(F)(F)(F)(F)F)cc2)C(C(=O)NCCc2cc(F)cc(F)c2)c2cccnc2)N(C#N)C1 (single isomer, unassigned) [1196 Isomer 2] |  | < 2000 |  | EC50 ([1]; read-out: 229E Mpro EC50): < 2000 nM; IC50 [3, 6]: < 2 µM |
| C[C@H](NC(=O)C(c1cccnc1)N(C(=O)c1ccco1)c1ccc(-c2ccccc2)cc1)c1ccccc1 (single isomer, unassigned) [1353 Isomer 1] | < 2000 | < 2000 | > 30 |  |
| N#CN1C2CCC1(C(=O)N(c1ccc(S(F)(F)(F)(F)F)cc1)C(C(=O)NC1CCC(F)(F)CC1)c1cncc(F)c1)CC2 (stereo not drawn) [Compound 1101, 7-cyano-N-[2-[(4,4-difluorocyclohexyl)amino]-1-(5-fluoro-3-pyridyl)-2-oxo-ethyl]-N-[4-(pentafluoro-λ6-sulfanyl)phenyl]-7-azabicyclo[2.2.1]heptane-1-carboxamide] |  |  | > 30 | EC50 ([1]; read-out: 229E Mpro EC50): 2000 to 10000 nM; IC50 ([2]; COVID-19 Mpro IC50, 25 nM Mpro): > 30000 nM |
| CO[C@@H]1C[C@H](C(=O)N(c2ccc(S(F)(F)(F)(F)F)cc2)C(C(=O)NC2CCOC(C)(C)C2)c2cccnc2)N(C#N)C1 (single isomer, unassigned) [1165 Isomer 2] |  | 10000 to 30000 |  | EC50 ([1]; read-out: 229E Mpro EC50): < 2000 nM; IC50 [3, 6]: 2 to 10 µM |
| N#CN1C[C@@H]2CC[C@@H]2[C@@H]1C(=O)N(c1ccc(S(F)(F)(F)(F)F)cc1)C(C(=O)NC1CCC(F)(F)CC1)c1cncc(F)c1 (single isomer, unassigned) [1097 Isomer 1] | < 2000 | < 2000 | < 2 |  |
| N#CN1C[C@H](F)C[C@@H]1C(=O)N(c1ccc(S(F)(F)(F)(F)F)cc1)C(C(=O)NC1CCC(F)(F)CC1)c1cncc(F)c1 (single isomer, unassigned) [Compound 1098 Isomer 1] | < 2000 | 2000 to 10000 | 2 to 10 |  |
| C[C@@]1(O)C[C@H](C(=O)N(c2ccc(S(F)(F)(F)(F)F)cc2)C(C(=O)NC2CCC(F)(F)CC2)c2cccnc2F)N(C#N)C1 (stereo partly drawn) [Compound 1158, (2R,4R)-1-cyano-N-[2-[(4,4-difluorocyclohexyl)amino]-1-(2-fluoro-3-pyridyl)-2-oxo-ethyl]-4-hydroxy-4-methyl-N-[4-(pentafluoro-λ6-sulfanyl)phenyl]pyrrolidine-2-carboxamide] | < 2000 | < 2000 | < 2 |  |
| COc1ccc(NC(=O)C(c2cccnc2)N(C(=O)[C@H]2CCCN2C#N)c2ccc(C(C)(C)C)cc2)cn1 (single isomer, unassigned) [Compound 407 Isomer 2] | 10000 to 30000 | > 30000 |  | IC50 ([3]; read-out: OC43 IC50 (uM) MEDIAN, median, listed as 407 Isomer 2): > 30 µM |
| N#CN1C[C@H](O)C[C@@H]1C(=O)N(c1ccc(C2(C(F)(F)F)CC2)cc1)C(C(=O)NC1CCCCC1)c1cccnc1 (single isomer, unassigned) [735 Isomer 1] | < 2000 | < 2000 | < 2 |  |
| CC(C)(C)c1ccc(N(C(=O)[C@H]2CCCN2C#N)C(C(=O)NCc2ccncc2)c2cccnc2)cc1 (single isomer, unassigned) [Compound 439 Isomer 1] | < 2000 | 2000 to 10000 | 10 to 30 |  |
| N#CC1(C(=O)N(c2ccc(S(F)(F)(F)(F)F)cc2)C(C(=O)NC2CCC(F)(F)CC2)c2cncc(F)c2)CC1 (stereo not drawn) [Compound 1289, 1-cyano-N-[2-[(4,4-difluorocyclohexyl)amino]-1-(5-fluoro-3-pyridyl)-2-oxo-ethyl]-N-[4-(pentafluoro-λ^6-sulfanyl)phenyl]cyclopropanecarboxamide] | > 30000 | > 30000 | > 30 |  |
| CC(C)(C)c1ccc(N(C(=O)[C@H]2CCCN2C#N)C(C(=O)N2CCOCC2)c2cccnc2)cc1 (single isomer, unassigned) [Compound 959 Isomer 1] | 2000 to 10000 | > 30000 |  | IC50 ([3]; read-out: OC43 IC50 (uM) MEDIAN, median, listed as 959 Isomer 1): 10 to 30 µM |
| CC(C)(C)c1ccc(N(C(=O)[C@H]2CCCN2C#N)C(C(=O)NCc2ccccn2)c2cccnc2)cc1 (stereo partly drawn) [Compound 443] | < 2000 | 2000 to 10000 | 10 to 30 |  |
| CO[C@@H]1C[C@H](C(=O)N(c2ccc(S(F)(F)(F)(F)F)cc2)C(C)(C(=O)NC2CCC(F)(F)CC2)c2cnccn2)N(C#N)C1 (single isomer, unassigned) [1299 Isomer 1] | < 2000 | 2000 to 10000 | 2 to 10 |  |
| CO[C@@H]1C[C@H](C(=O)N(c2ccc(C(C)(C)C)cc2)C(C)(C(=O)NC2CCC(F)(F)CC2)c2cnccn2)N(C#N)C1 (single isomer, unassigned) [1198 Isomer 2] | < 2000 | < 2000 |  | IC50 [3, 6]: < 2 µM |
| N#CN1C[C@@H]2CC[C@@H]2[C@@H]1C(=O)N(c1ccc(S(F)(F)(F)(F)F)cc1)C(C(=O)NC1CCC(F)(F)CC1)c1cncc(F)c1 (single isomer, unassigned) [1097 Isomer 2] | 2000 to 10000 | 10000 to 30000 |  | IC50 [3, 6]: 2 to 10 µM |
| C[C@H](NC(=O)C(c1cncc(F)c1)N(C(=O)[C@H]1C[C@@](C)(O)CN1C#N)c1ccc(-c2ccccc2)cc1)c1ccccc1 (single isomer, unassigned) [1345 Isomer 1] | < 2000 | < 2000 |  | IC50 [3, 6]: < 2 µM |
| CN(C)CCNC(=O)C(c1cccnc1)N(C(=O)[C@H]1CCCN1C#N)c1ccc(C(C)(C)C)cc1 (single isomer, unassigned) [Compound 435 Isomer 2] |  | 10000 to 30000 |  | EC50 ([1]; read-out: 229E Mpro EC50): < 2000 nM; IC50 ([3]; read-out: OC43 IC50 (uM) MEDIAN, median, listed as 435 Isomer 2): 10 to 30 µM |
| CC(C)(C)c1ccc(N(C(=O)C2CCC(F)(F)CN2C#N)C(C(=O)NC2CCCCC2)c2cccnc2)cc1 (single isomer, unassigned) [885 Isomer 2, N-(4-(tert-butyl)phenyl)-1-cyano-N-(2-(cyclohexylamino)-2-oxo-1-(pyridin-3-yl)ethyl)-5,5-difluoropiperidine-2-carboxamide] | < 2000 | < 2000 |  | IC50 [3, 6]: 2 to 10 µM |
